Laboratory results from ChEMBL document CHEMBL1148458, “Incorporating molecular shape into the alignment-free Grid-Independent Descriptors” (J Med Chem, 2004).
pKi: −log10 of the molar value.

How the values were obtained:
[1] = target: T1, Adenosine receptor A1 (Homo sapiens, UniProt P30542); experiment: Binding affinity at adenosine A1 receptor.
T1 sequence (P30542 whole entry): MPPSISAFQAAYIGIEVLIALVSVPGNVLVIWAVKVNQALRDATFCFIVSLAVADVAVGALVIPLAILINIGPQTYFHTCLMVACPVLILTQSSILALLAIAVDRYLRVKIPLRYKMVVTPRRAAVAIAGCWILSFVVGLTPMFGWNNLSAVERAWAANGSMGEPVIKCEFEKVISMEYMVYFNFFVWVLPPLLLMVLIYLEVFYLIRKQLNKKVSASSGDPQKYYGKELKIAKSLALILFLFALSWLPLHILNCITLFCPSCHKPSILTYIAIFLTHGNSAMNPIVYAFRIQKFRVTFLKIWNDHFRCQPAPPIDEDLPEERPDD

[2] = target: Cathepsin D (Homo sapiens, UniProt P07339); experiment: Binding affinity towards human cathepsin D.
Sequence of Cathepsin D (P07339 65-162 limits assumed): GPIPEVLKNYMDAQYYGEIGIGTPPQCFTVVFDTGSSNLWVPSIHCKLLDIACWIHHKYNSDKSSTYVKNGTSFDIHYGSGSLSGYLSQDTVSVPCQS
Sequence of Cathepsin D (P07339 169-412 limits assumed): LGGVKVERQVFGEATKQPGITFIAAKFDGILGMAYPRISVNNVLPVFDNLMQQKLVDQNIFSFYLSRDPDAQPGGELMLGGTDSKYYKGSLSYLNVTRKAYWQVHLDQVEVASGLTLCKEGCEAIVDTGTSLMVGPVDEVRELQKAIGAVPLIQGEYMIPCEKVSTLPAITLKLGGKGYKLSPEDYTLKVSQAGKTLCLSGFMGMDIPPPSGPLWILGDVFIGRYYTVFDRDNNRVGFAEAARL

[3] = target: Plasmepsin II (Plasmodium falciparum, UniProt P46925); experiment: Binding affinity towards plasmepsin-2 in Plasmodium falciparum.
Sequence of Plasmepsin II (P46925 whole entry): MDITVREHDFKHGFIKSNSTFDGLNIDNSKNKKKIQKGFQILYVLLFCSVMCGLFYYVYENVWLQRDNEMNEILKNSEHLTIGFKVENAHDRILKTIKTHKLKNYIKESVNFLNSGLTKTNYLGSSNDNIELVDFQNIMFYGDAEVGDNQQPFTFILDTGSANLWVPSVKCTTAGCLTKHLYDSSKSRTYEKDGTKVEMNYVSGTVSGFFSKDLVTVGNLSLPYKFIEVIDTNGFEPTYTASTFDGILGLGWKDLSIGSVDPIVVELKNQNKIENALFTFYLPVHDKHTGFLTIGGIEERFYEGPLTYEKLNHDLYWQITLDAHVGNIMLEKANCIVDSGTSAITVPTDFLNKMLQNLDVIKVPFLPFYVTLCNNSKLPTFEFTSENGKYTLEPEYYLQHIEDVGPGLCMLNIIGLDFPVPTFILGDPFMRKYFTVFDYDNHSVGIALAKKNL

| SMILES | pKi [1] | pKi [2] | pKi [3] |
| --- | --- | --- | --- |
| CCCC1C(=O)c2nc(CCCN3N=C(Cl)CCC3=O)[nH]c2N(C)C1=O (stereo not given) | 5.92 | – | – |
| CC1C(=O)c2nc(CCN3N=CCCC3=O)[nH]c2N(C)C1=O (stereo not given) | 4.89 | – | – |
| CCCCNC(=O)CC(O)C(CC(C)C)NC(=O)C(NC(=O)Cc1cc(OC)ccc1C)c1ccccc1 (stereo not given) | – | 5.68 | 6.23 |
| CCCCNC(=O)CC(O)C(Cc1ccccc1)NC(=O)C(CC(C)C)NC(=O)COc1ccc2ccccc2c1 (stereo not given) | – | 6.04 | 5.25 |
| CC1C(=O)c2nc(CCN3N=C(c4ccccc4)CCC3=O)[nH]c2N(C)C1=O (stereo not given) | 5.21 | – | – |
| CCCCNC(=O)CC(O)C(Cc1ccccc1)NC(=O)C(Cc1ccccc1)NC(=O)COc1ccc2ccccc2c1 (stereo not given) | – | 5.89 | 4.92 |
| CCC(C)C(NC(=O)CN1CCC(C(N)=O)(c2ccccc2)CC1)C(=O)NC(CC(C)C)C(O)CC(=O)NCCCc1ccccc1 (stereo not given) | – | 5.41 | 6.22 |
| CCCC1C(=O)c2nc(CN3N=C(Cl)CCC3=O)[nH]c2N(C)C1=O (stereo not given) | 5.04 | – | – |
| CCCCNC(=O)CC(O)C(Cc1ccccc1)NC(=O)[C@@H](NC(=O)c1ccc(CN2CCCC2)cc1)[C@@H](C)CC (stereo not given in full) | – | 5.92 | – |
| CC1C(=O)c2nc(CCCN3N=C(Cl)CCC3=O)[nH]c2N(C)C1=O (stereo not given) | 5.06 | – | – |
| CC1C(=O)c2nc(CCCCN3N=C(c4ccccc4)CCC3=O)[nH]c2N(C)C1=O (stereo not given) | 5.67 | – | – |
| CCCCNC(=O)C[C@H](O)[C@H](Cc1ccccc1)NC(=O)[C@@H](NC(=O)COc1ccc2ccccc2c1)C(C)CC (stereo not given in full) | – | 6.25 | 6.96 |
| CCCC1C(=O)c2nc(CN3N=C(c4ccccc4)CCC3=O)[nH]c2N(C)C1=O (stereo not given) | 5.64 | – | – |
| CCCCNC(=O)CC(O)C(CC(C)C)NC(=O)C(NC(=O)COc1ccc2ccccc2c1)c1ccccc1 (stereo not given) | – | 6.70 | 6.25 |
| CCCC1C(=O)c2nc(CCCCN3N=C(Cl)CCC3=O)[nH]c2N(C)C1=O (stereo not given) | 6.72 | – | – |
| CCCC1C(=O)c2nc(CCCCN3N=C(c4ccccc4)CCC3=O)[nH]c2N(C)C1=O (stereo not given) | 6.42 | – | – |

| SMILES | pKi [1] | pKi [2] | pKi [3] |
| --- | --- | --- | --- |
| CC1C(=O)c2nc(CCCCN3N=C(Cl)CCC3=O)[nH]c2N(C)C1=O (stereo not given) | 6.43 | – | – |
| CCCCNC(=O)CC(O)C(Cc1ccccc1)NC(=O)C(NC(=O)COc1ccc2ccccc2c1)c1ccccc1 (stereo not given) | – | 6.96 | 5.24 |
| CC1C(=O)c2nc(CCCN3N=C(c4ccccc4)CCC3=O)[nH]c2N(C)C1=O (stereo not given) | 4.97 | – | – |
| CCCCNC(=O)CC(O)C(Cc1ccccc1)NC(=O)C(NC(=O)Cc1ccc2ccccc2c1)C(C)CC (stereo not given) | – | 6.49 | 7.30 |
| CC1C(=O)c2nc(CN3N=C(c4ccccc4)CCC3=O)[nH]c2N(C)C1=O (stereo not given) | 4.27 | – | – |
| CCCCNC(=O)CC(O)C(CC(C)C)NC(=O)C(NC(=O)Cc1cc(OC)ccc1C)C(C)CC (stereo not given) | – | 5.62 | 6.66 |
| CCCCNC(=O)CC(O)C(CC(C)C)NC(=O)C(NC(=O)Cc1cc(OC)ccc1C)C(C)C (stereo not given) | – | 5.80 | 6.30 |
| CCCC1C(=O)c2nc(CCN3N=C(c4ccccc4)CCC3=O)[nH]c2N(C)C1=O (stereo not given) | 6.12 | – | – |
| CC1C(=O)c2nc(CCCN3N=CCCC3=O)[nH]c2N(C)C1=O (stereo not given) | 4.90 | – | – |
| CCCC1C(=O)c2nc(CCN3N=C(Cl)CCC3=O)[nH]c2N(C)C1=O (stereo not given) | 6.33 | – | – |
| CC1C(=O)c2nc(CN3N=C(Cl)CCC3=O)[nH]c2N(C)C1=O (stereo not given) | < 4.00 | – | – |
| CCCCNC(=O)CC(O)C(CC(C)C)NC(=O)C(CCC(N)=O)NC(=O)COc1ccc2ccccc2c1 (stereo not given) | – | 6.70 | < 4.52 |
| CCCCNC(=O)CC(O)C(CC(C)C)NC(=O)C(NC(=O)CN1CCC(C(N)=O)(c2ccccc2)CC1)C(C)CC (stereo not given) | – | 5.26 | 6.39 |
| CC1C(=O)c2nc(CCN3N=C(Cl)CCC3=O)[nH]c2N(C)C1=O (stereo not given) | 4.83 | – | – |
| CCCC1C(=O)c2nc(CCCN3N=C(c4ccccc4)CCC3=O)[nH]c2N(C)C1=O (stereo not given) | 6.09 | – | – |
| CCCCNC(=O)CC(O)C(CC(C)C)NC(=O)C(NC(=O)Cc1ccc2ccccc2c1)C(C)CC (stereo not given) | – | 7.30 | 7.05 |
